Values after ≈ are worked out from the molar mass of the structure shown.
Experiments:
[1] = Antiproliferative activity against human HuTu 80 cells after 48 hrs by MTT assay; assay type: functional, cell-based; conditions: HuTu80, 48 h
[2] = Antiproliferative activity against human PANC1 cells after 48 hrs by MTT assay; assay type: functional, cell-based; conditions: PANC-1, 48 h
4T1 [3] = test: Antiproliferative activity against mouse 4T1 cells after 48 hrs by MTT assay; assay type: functional, cell-based; conditions: 4T1, 48 h
[4] = (§1) Cytotoxicity against HEK293 cells assessed as reduction in cell survival after 48 hrs by MTT assay; assay type: cell-based, Homo sapiens; conditions: human, HEK293 cells
HEK293 [5] = test: as §1; assay type: cell-based, Homo sapiens; conditions: Homo sapiens, HEK293, 48 h
[6] = (§2) Cytotoxicity against HUVEC assessed as reduction in cell survival after 48 hrs by MTT assay; assay type: cell-based, Homo sapiens; conditions: human, HUVEC cells
HUVEC = test: as §2; assay type: cell-based, Homo sapiens; conditions: Homo sapiens, HUVEC, 48 h
Mus musculus [7] = test: Acute toxicity in Kunming mouse assessed as physical/abnormal changes in eyes at 500 mg/kg, administered as single dose after 14 days; assay type: organism-based; conditions: in vivo, 336 h
4T1 [8] = test: Selectivity index, ratio of IC50 for HUVEC to IC50 for mouse 4T1 cells
HuTu80 [9] = test: Selectivity index, ratio of IC50 for HUVEC to IC50 for human HuTu 80 cells
Mus musculus [10] = test: Acute toxicity in Kunming mouse assessed as behavior pattern abnormality at 500 mg/kg, administered as single dose after 14 days; assay type: organism-based; conditions: in vivo, 336 h
Mus musculus [11] = test: Acute toxicity in Kunming mouse assessed as tremor induction at 500 mg/kg, administered as single dose after 14 days; assay type: organism-based; conditions: in vivo, 336 h
Mus musculus [12] = test: Acute toxicity in Kunming mouse assessed as induction of salivation at 500 mg/kg, administered as single dose after 14 days; assay type: organism-based; conditions: in vivo, 336 h
HEK293 [13] = test: Selectivity index, ratio of IC50 for HEK293 cells to IC50 for human HuTu 80 cells; assay type: functional
Mus musculus [14] = test: Acute toxicity in Kunming mouse assessed as physical/abnormal changes in skin at 500 mg/kg, administered as single dose after 14 days; assay type: organism-based; conditions: in vivo, 336 h
Mus musculus [15] = test: Acute toxicity in Kunming mouse assessed as physical/abnormal changes in fur at 500 mg/kg, administered as single dose after 14 days; assay type: organism-based; conditions: in vivo, 336 h
Mus musculus [16] = test: Acute toxicity in Kunming mouse assessed as survival at 500 mg/kg, administered as single dose measured on day 14 post dose; assay type: organism-based; conditions: in vivo
Mus musculus [17] = test: Acute toxicity in Kunming mouse assessed as structural abnormality in liver at 500 mg/kg, administered as single dose after 14 days by hematoxylin and eosin staining based histological analysis; assay type: organism-based; conditions: in vivo, 336 h
Mus musculus [18] = test: Acute toxicity in Kunming mouse assessed as structural abnormality in kidney at 500 mg/kg, administered as single dose after 14 days by hematoxylin and eosin staining based histological analysis; assay type: organism-based; conditions: in vivo, 336 h
HEK293 [19] = test: Selectivity index, ratio of IC50 for HEK293 cells to IC50 for human PANC1 cells; assay type: functional
Mus musculus [20] = test: Acute toxicity in Kunming mouse assessed as sleep pattern abnormality at 500 mg/kg, administered as single dose after 14 days; assay type: organism-based; conditions: in vivo, 336 h
Mus musculus [21] = test: Acute toxicity in Kunming mouse assessed as physical/abnormal changes in mucus membrane at 500 mg/kg, administered as single dose after 14 days; assay type: organism-based; conditions: in vivo, 336 h
HEK293 [22] = test: Selectivity index, ratio of IC50 for HEK293 cells to IC50 for mouse 4T1 cells; assay type: functional
PANC-1 = test: Selectivity index, ratio of IC50 for HUVEC to IC50 for human PANC1 cells
[23] = Cell cycle arrest in human HuTu 80 cells assessed as accumulation at subG1 phase at 3 ug/ml after 48 hrs by propidium iodide staining based flow cytometry (reference value: 2.27 to 2.3%); assay type: functional; conditions: HuTu80
HuTu80 [24] = test: Induction of apoptosis in human HuTu 80 cells assessed as live cells at 3 ug/ml after 48 hrs by Annexin V/propidium iodide staining based flow cytometry (reference value: 92.5%); assay type: functional
[25] = Cell cycle arrest in human HuTu 80 cells assessed as accumulation at G1 phase at 3 ug/ml after 48 hrs by propidium iodide staining based flow cytometry (reference value: 43.3 to 43.32%); assay type: functional; conditions: HuTu80
HuTu80 [26] = test: Induction of apoptosis in human HuTu 80 cells assessed as necrotic cells at 3 ug/ml after 48 hrs by Annexin V/propidium iodide staining based flow cytometry (reference value: 5.3%); assay type: functional
[27] = Cell cycle arrest in human HuTu 80 cells assessed as accumulation at S phase at 3 ug/ml after 48 hrs by propidium iodide staining based flow cytometry (reference value: 15.79 to 15.8%); assay type: functional; conditions: HuTu80
[28] = Cell cycle arrest in human HuTu 80 cells assessed as accumulation at G2/M phase at 3 ug/ml after 48 hrs by propidium iodide staining based flow cytometry (reference value: 23.2%); assay type: functional; conditions: HuTu80
HuTu80 [29] = test: Induction of apoptosis in human HuTu 80 cells assessed as early apoptotic cells at 3 ug/ml after 48 hrs by Annexin V/propidium iodide staining based flow cytometry (reference value: 0.5%); assay type: functional
HuTu80 [30] = test: Induction of apoptosis in human HuTu 80 cells assessed as late apoptotic cells at 3 ug/ml after 48 hrs by Annexin V/propidium iodide staining based flow cytometry (reference value: 1.6%); assay type: functional

## N#CC1=C(N)Oc2c(c(=O)oc3ccccc23)C1c1ccc(Br)cc1 (stereo not drawn)
[1]
  IC50: > 300 µg/mL
  IC90: 447 µg/mL (≈ 1130 µM)
[2]
  IC50: > 300 µg/mL
  IC90: > 500 µg/mL
4T1 [3]
  IC50: > 300 µg/mL
  IC90: > 500 µg/mL

## COc1ccccc1C(c1c(O)c2ccccc2oc1=O)c1c(O)c2ccccc2oc1=O
[1]
  IC50: 17.9 µg/mL (≈ 40.5 µM)
  IC90: 110 µg/mL (≈ 248 µM)
[4]
  IC90 at 48 h: 282 µg/mL (≈ 638 µM)
HEK293 [5]
  IC50: 117 µg/mL (≈ 264 µM)
[6]
  IC90 at 48 h: 269 µg/mL (≈ 607 µM)
HUVEC
  IC50: 119 µg/mL (≈ 270 µM)
[2]
  IC50: 62.1 µg/mL (≈ 140 µM)
  IC90: 110 µg/mL (≈ 249 µM)
Mus musculus [7]
  Activity: Non-toxic
4T1 [8]
  Ratio IC50: 2.3
HuTu80 [9]
  Ratio IC50: 6.7
Mus musculus [10]
  Activity: Non-toxic
Mus musculus [11]
  Activity: Non-toxic
Mus musculus [12]
  Activity: Non-toxic
HEK293 [13]
  Ratio IC50: 6.5
Mus musculus [14]
  Activity: Non-toxic
Mus musculus [15]
  Activity: Non-toxic
Mus musculus [16]
  Activity: Non-toxic
Mus musculus [17]
  Activity: Non-toxic
4T1 [3]
  IC50: 52.2 µg/mL (≈ 118 µM)
  IC90: 133 µg/mL (≈ 301 µM)
Mus musculus [18]
  Activity: Non-toxic
HEK293 [19]
  Ratio IC50: 1.9
Mus musculus [20]
  Activity: Non-toxic
Mus musculus [21]
  Activity: Non-toxic
HEK293 [22]
  Ratio IC50: 2.2
PANC-1
  Ratio IC50: 1.9

## CC1(C)CC(=O)C2=C(C1)OC(N)=C(C#N)C2c1cc(F)c(F)c(F)c1 (stereo not drawn)
[1]
  IC50: 297 µg/mL (≈ 854 µM)
  IC90: > 500 µg/mL
[2]
  IC50: 283 µg/mL (≈ 812 µM)
  IC90: > 500 µg/mL
4T1 [3]
  IC50: 241 µg/mL (≈ 692 µM)
  IC90: > 500 µg/mL

## N#CC1=C(N)Oc2c(c(=O)oc3ccccc23)C1c1ccc(C#N)cc1 (stereo not drawn)
[1]
  IC50: > 300 µg/mL
  IC90: > 500 µg/mL
[2]
  IC50: > 300 µg/mL
  IC90: > 500 µg/mL
4T1 [3]
  IC50: > 300 µg/mL
  IC90: > 500 µg/mL

## O=c1oc2ccccc2c(O)c1C(c1ccc(F)c(F)c1)c1c(O)c2ccccc2oc1=O
[1]
  IC50: 15 µg/mL (≈ 33.5 µM)
  IC90: 28 µg/mL (≈ 62.4 µM)
[4]
  IC90 at 48 h: 221 µg/mL (≈ 492 µM)
HEK293 [5]
  IC50: 107 µg/mL (≈ 239 µM)
[6]
  IC90 at 48 h: 276 µg/mL (≈ 616 µM)
HUVEC
  IC50: 112 µg/mL (≈ 251 µM)
[2]
  IC50: 82.4 µg/mL (≈ 184 µM)
  IC90: 155 µg/mL (≈ 346 µM)
Mus musculus [7]
  Activity: Non-toxic
[23]
  Activity: 25.1%
4T1 [8]
  Ratio IC50: 2.3
HuTu80 [24]
  Activity: 88%
[25]
  Activity: 26.1%
HuTu80 [9]
  Ratio IC50: 7.5
HuTu80 [26]
  Activity: 7.5%
Mus musculus [10]
  Activity: Non-toxic
Mus musculus [11]
  Activity: Non-toxic
Mus musculus [12]
  Activity: Non-toxic
[27]
  Activity: 18.5%
HEK293 [13]
  Ratio IC50: 7.1
Mus musculus [14]
  Activity: Non-toxic
[28]
  Activity: 15.3%
Mus musculus [15]
  Activity: Non-toxic
Mus musculus [16]
  Activity: Non-toxic
Mus musculus [17]
  Activity: Non-toxic
4T1 [3]
  IC50: 47.9 µg/mL (≈ 107 µM)
  IC90: 98.4 µg/mL (≈ 219 µM)
Mus musculus [18]
  Activity: Non-toxic
HuTu80 [29]
  Activity: 1.2%
HuTu80 [30]
  Activity: 3.2%
HEK293 [19]
  Ratio IC50: 1.3
Mus musculus [20]
  Activity: Non-toxic
Mus musculus [21]
  Activity: Non-toxic
HEK293 [22]
  Ratio IC50: 2.2
PANC-1
  Ratio IC50: 1.36

## N#CC1=C(N)Oc2c(c(=O)oc3ccccc23)C1c1ccc([N+](=O)[O-])cc1 (stereo not drawn)
[1]
  IC50: 97 µg/mL (≈ 268 µM)
  IC90: 187 µg/mL (≈ 518 µM)
[2]
  IC50: 218 µg/mL (≈ 604 µM)
  IC90: 348 µg/mL (≈ 963 µM)
4T1 [3]
  IC50: 142 µg/mL (≈ 394 µM)
  IC90: 289 µg/mL (≈ 801 µM)

## CC(C)c1ccc(C2C(C#N)=C(N)Oc3c2c(=O)oc2ccccc32)cc1 (stereo not drawn)
[1]
  IC50: 238 µg/mL (≈ 664 µM)
  IC90: > 500 µg/mL
[2]
  IC50: 256 µg/mL (≈ 715 µM)
  IC90: > 500 µg/mL
4T1 [3]
  IC50: > 300 µg/mL
  IC90: > 500 µg/mL

## COc1cc(C2C(C#N)=C(N)OC3=C2C(=O)CC3)cc(OC)c1OC (stereo not drawn)
[1]
  IC50: 185 µg/mL (≈ 541 µM)
  IC90: 360 µg/mL (≈ 1050 µM)
[2]
  IC50: 200 µg/mL (≈ 583 µM)
  IC90: 391 µg/mL (≈ 1140 µM)
4T1 [3]
  IC50: 153 µg/mL (≈ 448 µM)
  IC90: 365 µg/mL (≈ 1070 µM)
